Entries after “also recorded” stand apart in the source; their conditions may differ. Read-outs that look alike come from different tables or passages of the source.
What was measured:
DENV2 NGC = experiment: Screening antiviral efficacy: viral inhibition at 10 µM in DENV2-infected LLC/MK2 cells, plaque titration; assay type: cell-based, DENV2 (New Guinea C strain); conditions: for inhibition at 10 µM: Dengue virus
Method: The flavone analogs were preliminary screened for their viral inhibitory activity against DENV2 NGC (accession number NC_001474.2) in a LLC/MK2 (ATCC CCL-7™) cell-based system at the final concentration of 10 μM. […] On the other hand, the acylation of the hydroxy groups on the A-ring yielded mixed results.
LLC/MK2 cells (5 × 10^4) were seeded in 24-well plate and incubate at 37 °C under 5% CO2 overnight. Cells were infected with DENV2 NGC at a multiplicity of infection (M.O.I. of 0.1) and compounds at 10 µM were added and DMSO at 1% was used as control. Cultured plates were incubated for 1 h with gentle rocking every 15 min. Cells were washed with PBS, MEM supplemented with 1% FBS, 100 I.U./mL penicillin, and 100 µg/mL streptomycin, 10 mM HEPES was added in a presence of a compound at 10 µM. Cells were incubated at 37 °C with 5% CO2 for 3 days. Supernatants were collected to determine viral titers by plaque titration assay as previously described. The selected compounds were further analyzed for an effective concentration (EC50).

[1] = Cellular toxicity in LLC/MK2 cells (MTS assay); assay type: cell-based; conditions: rhesus monkey
Method: Cytotoxicity of the compounds was also accessed at the concentration of 10 µM in parallel with the viral inhibition screening. LLC/MK2 cells (1 × 10^4) were seeded in 96-well plate and incubated at 37 °C under 5% CO2 overnight; compounds were added after 24 h, and then incubated for 2 days. DMSO at 1% was used as mock treatment. Cytotoxicity was measured using CellTiter 96® Aqueous One Solution Cell Proliferation Assay (MTS) kit (Promega, Wisconsin-Madison, WI, USA) according to the manufacturer’s instruction and analyzed by EnSight Multimode Plate Reader spectrophotometry at A450nm. (Perkin Elmer, Waltham, MA, USA).

DENV2 [2] = tested on: DENV2; design: method as in PMID 23140177, PMID 29057920; conditions: data according to literature (footnote f); read-out: EC50 (50% effective concentration against DENV2); cited from earlier work
[3] = tested on: DENV2 replication in Vero cells; design: method as in PMID 31441148, PMID 23140177; conditions: cited from earlier work
DENV2 [4] = experiment: Antiviral efficacy (EC50) against DENV2 in LLC/MK2 cells, plaque titration; assay type: cell-based, DENV2 (New Guinea C strain); conditions: for EC50: Dengue virus, DENV2, LLC/MK2 cells, three independent experiments, read-out: EC50 (50% effective concentration against DENV2); for fold increase in activity compared with 8-bromobaicalein 5f / fold more active than the original baicalein 5a: EC50 against DENV2
Method: LLC/MK2 (ATCC® CCL-7), and C6/36 (ATCC® CRL-1660) cell lines were propagated and maintained as previously described[18],[29],[31]. Effective concentration (EC50) of the compounds against the DENV2 were tested using LLC/MK2 cells[18],[29]. Briefly, cells were seeded overnight and infected with each virus at the multiplicity of infection (M.O.I.) of 0.1 for 1 h. The compound was added during and after infection, and cells were incubated for 72 h. Supernatants were collected for plaque titration. EC50 results were means and standard errors of three independent experiments.

[5] = Cellular toxicity in LLC/MK2 cells (MTS assay); assay type: cell-based; conditions: rhesus monkey; remark: listed apart in the source
dengue and Zika virus = conditions: cited from earlier work
dengue virus = tested on: dengue virus; design: method as in PMID 28389141; conditions: mice administered with luteolin; cited from earlier work
[6] = 10 μM, DENV2 NGC-infected LLC/MK2 cells, NA = not active, read-out: %Inhibition (%viral inhibition against DENV2)
[7] = DENV2, LLC-MK2, read-out: %Inhibition (%viral inhibition against DENV2)
[8] = 10 μM, read-out: %Viability in LLC/MK2 cell

O=c1cc(-c2ccccc2)oc2ccc(O)cc12 [1a, 6-hydroxyflavone]
inhibition at 10 µM (DENV2 NGC; [6]): 90%
viability at 2 days, 10 µM [1]: 69.5 ± 14.3%

COc1ccc2oc(-c3ccccc3)cc(=O)c2c1 [1b, 6-Methoxyflavone]
inhibition at 10 µM (DENV2 NGC; [7]): 77%
viability at 2 days, 10 µM [1]: 95.2 ± 8.12%

CCC(=O)Oc1ccc2oc(-c3ccccc3)cc(=O)c2c1 [1c, 6-Propionoxyflavone]
inhibition at 10 µM (DENV2 NGC; [6]): 73%
viability at 2 days, 10 µM [1]: 89.18 ± 0.78%

O=c1cc(-c2ccccc2)oc2cc(O)ccc12 [2a, 7-hydroxyflavone]
inhibition at 10 µM (DENV2 NGC; [6]): 37.5%
viability at 2 days, 10 µM [1, 8]: 122 ± 7.21%

COc1ccc2c(=O)cc(-c3ccccc3)oc2c1 [2b, 7-Methoxyflavone]
inhibition at 10 µM (DENV2 NGC; [7]): 37.5%
viability at 2 days, 10 µM [1]: 84.5 ± 3.34%

CCC(=O)Oc1ccc2c(=O)cc(-c3ccccc3)oc2c1 [2c, 7-Propionoxyflavone]
inhibition at 10 µM (DENV2 NGC; [6]): 37.5%
viability at 2 days, 10 µM [1]: 115 ± 1.55%

O=c1cc(-c2ccccc2)oc2c(O)c(O)ccc12 [3a, 7,8-dihydroxyflavone]
inhibition at 10 µM (DENV2 NGC; [7]): 58.3%
viability at 2 days, 10 µM [1, 8]: 79.4 ± 3.2%

O=c1cc(-c2ccccc2)oc2c3c(ccc12)OCO3 [3b, 7,8-Dioxoloflavone]
viability at 2 days, 10 µM [1]: 96.6 ± 1.01%

O=c1cc(-c2ccccc2)oc2cc(O)cc(O)c12 [4a, chrysin]
inhibition at 10 µM (DENV2 NGC; [6]): 16.7%
viability at 2 days, 10 µM [1]: 84.8 ± 2.03%

COc1cc(O)c2c(=O)cc(-c3ccccc3)oc2c1 [4b, 5-Hydroxy-7-methoxyflavone]
inhibition at 10 µM (DENV2 NGC; [6]): 16.7%
viability at 2 days, 10 µM [1]: 97.5 ± 1%

O=c1cc(-c2ccccc2)oc2cc(OCc3ccccc3)cc(O)c12 [4c, 7-Benzyloxy-5-hydroxyflavone]
viability at 2 days, 10 µM [1]: 86.1 ± 3.05%

O=c1cc(-c2ccccc2)oc2c(Br)c(O)c(Br)c(O)c12 [4d, 6,8-Dibromo-5,7-dihydroxyflavone]
inhibition at 10 µM (DENV2 NGC; [7]): 83%
viability at 2 days, 10 µM [1]: 101.1 ± 0.44%
EC50 (DENV2 [2]): 1.47 ± 0.86 µM

O=c1cc(-c2ccccc2)oc2c([N+](=O)[O-])c(O)cc(O)c12 [4e, 5,7-Dihydroxy-8-nitroflavone]
inhibition at 10 µM (DENV2 NGC; [7]): 33.3%
viability at 2 days, 10 µM [1, 8]: 52.5 ± 2.59%

Nc1c(O)cc(O)c2c(=O)cc(-c3ccccc3)oc12 [4f, 8-Amino-5,7-dihydroxyflavone]
viability at 2 days, 10 µM [1]: 93.4 ± 3.29%

O=c1cc(-c2ccccc2)oc2cc(O)c(O)c(O)c12 [5a, baicalein]
inhibition at 10 µM (DENV2 NGC; [7]): 75%
viability at 2 days, 10 µM [1, 8]: 92.9 ± 1.44%
EC50 (DENV2 [2]): 23.9 µM
IC50 [3]: 23.9 µM
selectivity index (SI) [3]: 17.8

COc1cc2oc(-c3ccccc3)cc(=O)c2c(O)c1OC [5b, 5-Hydroxy-6,7-dimethoxyflavone]
inhibition at 10 µM (DENV2 NGC; [6]): 80%
viability at 2 days, 10 µM [1]: 97.5 ± 2.47%

CC(=O)Oc1cc2oc(-c3ccccc3)cc(=O)c2c(OC(C)=O)c1OC(C)=O [5c, 5,6,7-Triacetoxyflavone]
inhibition at 10 µM (DENV2 NGC; [7]): 100%
EC50 (DENV2 [4]): 0.41 ± 0.56 µM
viability at 2 days, 10 µM [1, 8]: 107 ± 7.34%

CCC(=O)Oc1cc2oc(-c3ccccc3)cc(=O)c2c(OC(=O)CC)c1OC(=O)CC [5d, 5,6,7-Tripropionoxyflavone]
inhibition at 10 µM (DENV2 NGC; [7]): 90%
EC50 (DENV2 [4]): 0.07 ± 0.015 µM
fold increase in activity compared with 8-bromobaicalein 5f (DENV2 [4]): over tenfold; also recorded: more than tenfold
fold more active than the original baicalein 5a (DENV2 [4]): over 300 fold
viability at 2 days, 10 µM [1, 8]: 83.8 ± 2.61%
CC50 at 2 days ([5]; LLC/MK2 cells, read-out: CC50): > 100 µM

CCC(=O)Oc1cc2oc(-c3ccccc3)cc(=O)c2c(O)c1OC(=O)CC [5e, 5-Hydroxy-6,7-dipropionoxyflavone]
inhibition at 10 µM (DENV2 NGC; [6]): 91.7%
EC50 (DENV2 [4]): 0.068 ± 0.04 µM
fold increase in activity compared with 8-bromobaicalein 5f (DENV2 [4]): over tenfold; also recorded: more than tenfold
fold more active than the original baicalein 5a (DENV2 [4]): over 300 fold
viability at 2 days, 10 µM [1]: 89.6 ± 5.95%
melting point: 132 to 134 °C
CC50 at 2 days [5]: > 100 µM

O=c1cc(-c2ccccc2)oc2c(Br)c(O)c(O)c(O)c12 [5f, 8-Bromo-5,6,7-trihydroxyflavone]
inhibition at 10 µM (DENV2 NGC; [7]): 100%
viability at 2 days, 10 µM [1]: 73.4 ± 14.8%
EC50 (DENV2 [2]): 0.88 ± 0.14 µM

CC(=O)Oc1c(OC(C)=O)c(OC(C)=O)c2c(=O)cc(-c3ccccc3)oc2c1Br [5g, 5,6,7-Triacetoxy-8-bromoflavone]
inhibition at 10 µM (DENV2 NGC; [6]): 100%
EC50 (DENV2 [4]): 0.26 ± 0.14 µM
viability at 2 days, 10 µM [1]: 50.9 ± 3.22%

CCC(=O)Oc1c(OC(=O)CC)c(OC(=O)CC)c2c(=O)cc(-c3ccccc3)oc2c1Br [5h, 8-Bromo-5,6,7-tripropionoxyflavone]
%Inhibition (%viral inhibition against DENV2) (DENV2 NGC; 10 μM, DENV2 NGC-infected LLC/MK2 cells, NA = not active): inactive
viability at 2 days, 10 µM [1]: 84.5 ± 6.56%
melting point: 113 to 115 °C

COc1cc2oc(-c3ccccc3)cc(=O)c2c(OC)c1OC [5i, 5,6,7-Trimethoxyflavone]
inhibition at 10 µM (DENV2 NGC; [6]): 44.4%
viability at 2 days, 10 µM [1]: 96.8 ± 11.9%

COc1cc2oc(-c3ccc(Br)cc3)cc(=O)c2c(OC)c1OC [5j, 4′-Bromo-5,6,7-trimethoxylflavone]
inhibition at 10 µM (DENV2 NGC; [6]): 70.4%
viability at 2 days, 10 µM [1]: 101 ± 11.1%

COc1cc2oc(-c3ccc([N+](=O)[O-])cc3)cc(=O)c2c(OC)c1OC [5k, 5,6,7-Trimethoxy-4′-nitroflavone]
inhibition at 10 µM (DENV2 NGC; [6]): 70%
viability at 2 days, 10 µM [1]: 101 ± 1.97%

COc1cc2oc(-c3ccc(N)cc3)cc(=O)c2c(OC)c1OC [5l, 4′-Amino-5,6,7-trimethoxyflavone]
inhibition at 10 µM (DENV2 NGC; [6]): 62%
viability at 2 days, 10 µM [1]: 93 ± 2.36%

O=c1cc(-c2ccc(Br)cc2)oc2cc(O)c(O)c(O)c12 [5m, 4′-Bromo-5,6,7-trihydroxyflavone]
inhibition at 10 µM (DENV2 NGC; [6]): 100%
EC50 (DENV2 [4]): 0.52 ± 0.12 µM
viability at 2 days, 10 µM [1]: 90 ± 6.61%

O=c1cc(-c2ccc([N+](=O)[O-])cc2)oc2cc(O)c(O)c(O)c12 [5n, 5,6,7-Trihydroxy-4′-nitroflavone]
inhibition at 10 µM (DENV2 NGC; [6]): 100%
EC50 (DENV2 [4]): 4.3 ± 0.56 µM
viability at 2 days, 10 µM [1]: 78.5 ± 9.87%

Nc1ccc(-c2cc(=O)c3c(O)c(O)c(O)cc3o2)cc1 [5o, 4′-Amino-5,6,7-trihydroxyflavone]
viability at 2 days, 10 µM [1]: 109 ± 2.53%

COc1cc2oc(-c3ccc(Br)cc3)cc(=O)c2c(O)c1OC [5p, 4′-Bromo-5-hydroxy-6,7-dimethoxyflavone]
inhibition at 10 µM (DENV2 NGC; [6]): 64.8%
viability at 2 days, 10 µM [1]: 96.8 ± 5.28%

COc1cc2oc(-c3ccc([N+](=O)[O-])cc3)cc(=O)c2c(O)c1OC [5q, 5-Hydroxy-6,7-dimethoxy-4′-nitroflavone]
inhibition at 10 µM (DENV2 NGC; [6]): 98.2%
EC50 (DENV2 [4]): 4.52 ± 0.76 µM
viability at 2 days, 10 µM [1]: 84.7 ± 5.07%
melting point: 145 to 150 °C

COc1cc2oc(-c3ccc([N+](=O)[O-])cc3)cc(=O)c2c(O)c1O [5r, 5,6-Dihydroxy-7-methoxy-4′-nitroflavone]
inhibition at 10 µM (DENV2 NGC; [6]): 22.2%
viability at 2 days, 10 µM [1]: 91.6 ± 0.89%
melting point: 174 to 178 °C

CCCCCCCCCCCCOc1c(Br)c(O)c2c(=O)cc(-c3ccccc3)oc2c1Br [IV]
EC50 (dengue and Zika virus): 4.17 µM

O=c1cc(-c2ccc(O)c(O)c2)oc2cc(O)cc(O)c12 [luteolin]
reduction of the virus load (dengue virus): tenfold reduction

Source: publication PMC9751290, “Design, synthesis, in vitro, in silico, and SAR studies of flavone analogs towards anti-dengue activity” (Scientific Reports, 2022)
